Results as given in ChEMBL document CHEMBL3588804, “Structure-activity relationship studies on acremomannolipin A, the potent calcium signal modulator with a novel glycolipid structure 3: role of the length of alditol side chain” (Bioorg Med Chem, 2015).
The source made the active and inactive calls. No cut-off for these calls is given here.

System: Schizosaccharomyces pombe
Experiment: Suppression of Cl- sensitive growth defect in calcineurin gene deleted Schizosaccharomyces pombe (h+ leu1 ura4-D18 ppb1::ura4+) at 100 uM after 3 days by filter paper disk assay in presence of 0.11 M MgCl2 in YPD medium

| SMILES | Activity |
| --- | --- |
| CCCCCCCC(=O)O[C@@H]1[C@H](OC[C@@H](O)[C@@H](O)[C@H](O)CO)O[C@H](COC(=O)CCCCC)[C@@H](OC(=O)CCCCC)[C@@H]1OC(=O)CCCCC | Active |
| CCCCCCCC(=O)O[C@@H]1[C@H](OC[C@@H](O)[C@@H](O)CO)O[C@H](COC(=O)CCCCC)[C@@H](OC(=O)CCCCC)[C@@H]1OC(=O)CCCCC | Active |
| CCCCCCCC(=O)O[C@@H]1[C@H](OC[C@@H](O)CO)O[C@H](COC(=O)CCCCC)[C@@H](OC(=O)CCCCC)[C@@H]1OC(=O)CCCCC | inactive |
| CCCCCCCC(=O)O[C@@H]1[C@H](OC[C@@H](O)[C@@H](O)[C@H](O)[C@H](O)CO)O[C@H](COC(=O)CCCCC)[C@@H](OC(=O)CCCCC)[C@@H]1OC(=O)CCCCC | Active |
| CCCCCCCC(=O)O[C@@H]1[C@H](OC[C@@H](O)[C@@H](O)[C@H](O)[C@H](O)[C@@H](O)CO)O[C@H](COC(=O)CCCCC)[C@@H](OC(=O)CCCCC)[C@@H]1OC(=O)CCCCC | Active |
| CCCCCCCC(=O)O[C@@H]1[C@H](OCCO)O[C@H](COC(=O)CCCCC)[C@@H](OC(=O)CCCCC)[C@@H]1OC(=O)CCCCC | inactive |
